The term IC50 denotes the point on the concentration scale where inhibition reaches its midpoint. By logD is commonly meant lipophilicity at a set pH, counting ionised and neutral species. Lower therefore signals lower lipophilicity. The term Papp denotes the rate of passage across a membrane or cell layer, normalised by area and donor concentration. Higher therefore signals fast passage.

The record followed here is US20240317708A1, “INHIBITORS OF TRANSGLUTAMINASES” (ZEDIRA GMBH, priority 2021, published 2024).

A value given as a limit tells only on which side of the number the result lay.

The target in data set [1] is T1, recombinant human transglutaminase 2 (Homo sapiens, UniProt P21980).
T1 construct: purchased Zedira T022
T1 sequence (P21980 1-687): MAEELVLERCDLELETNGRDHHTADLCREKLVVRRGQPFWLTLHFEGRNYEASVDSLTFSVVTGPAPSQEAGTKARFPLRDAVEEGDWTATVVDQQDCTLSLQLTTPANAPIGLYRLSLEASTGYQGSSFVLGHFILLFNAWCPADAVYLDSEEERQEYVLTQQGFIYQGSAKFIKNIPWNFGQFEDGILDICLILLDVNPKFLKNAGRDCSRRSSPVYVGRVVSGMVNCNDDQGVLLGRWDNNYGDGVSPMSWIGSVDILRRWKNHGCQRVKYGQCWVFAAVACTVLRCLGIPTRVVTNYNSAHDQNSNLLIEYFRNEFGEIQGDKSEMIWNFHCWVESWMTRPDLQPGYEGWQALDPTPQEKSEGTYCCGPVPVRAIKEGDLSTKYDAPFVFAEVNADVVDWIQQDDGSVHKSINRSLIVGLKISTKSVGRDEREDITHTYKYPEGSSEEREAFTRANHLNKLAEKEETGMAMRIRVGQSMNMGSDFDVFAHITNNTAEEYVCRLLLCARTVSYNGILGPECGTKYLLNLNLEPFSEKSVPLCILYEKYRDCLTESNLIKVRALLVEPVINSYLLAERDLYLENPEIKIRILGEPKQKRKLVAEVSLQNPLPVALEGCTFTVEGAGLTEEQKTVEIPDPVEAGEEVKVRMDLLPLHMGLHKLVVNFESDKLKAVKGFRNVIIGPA
Briefly: Transglutaminase assay (dansylcadaverine incorporation into dimethylcasein, DCC-assay). The class given is biochemical. To be noted: recombinant human TG2 10 nM, dansylcadaverine/dimethylcasein, 37° C. In short, it runs like this:
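IC50 derived from fluorescence slope between 20 and 30 min (λex 330 nm, λem 500 nm, 37 °C), expressed relative to a 2% DMSO control. Reaction: 10 nM recombinant human TG2, 4 μM dimethylcasein, 16.7 μM dansylcadaverine, 10 mM CaCl2 and glutathione, pH 8.0.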

Data set [2] is described as follows: Log D shake flask method (octanol / PBS pH 7.4, HPLC). The class given is physicochemical. To be noted: octanol/phosphate-buffered saline (PBS); octanol / PBS pH 7.4, shake flask. The method, then:
In order to classify the inventive compounds according to their lipophilicity, Log D values (distribution coefficient) were determined by means of the well-established shake flask method, measuring the partition of a compound between an octanol and phosphate-buffered saline (PBS, pH 7.4) by HPLC.

Data set [3] in a line: Caco-2 permeability assay (CacoReady kit). To be noted: human. The data set is classed as in vitro ADME. A digest of the protocol: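 Papp values come from Caco-2 barrier studies intended to predict oral bioavailability; the manufacturer's procedure for the ready-made kit was followed.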
Background: Caco-2 monolayers are a common model of the intestinal barrier.

`COC(=O)/C=C/CC[C@H](NC(=O)c1sc(C(F)(F)F)nc1C)C(=O)Nc1cccn(CC(=O)N[C@@H]2C[C@@H]3CC[C@H]2C3)c1=O` [III-125, (S,E)-methyl 7-(1-(2-((1S,2R,4R)-bicyclo[2.2.1]heptan-2-ylamino)-2-oxoethyl)-2-oxo-1,2-dihydropyridin-3-ylamino)-6-(4-methyl-2-(trifluoromethyl)thiazole-5-carboxamido)-7-oxohept-2-enoate]: the IC50 in data set [1] was below 25 nM. This compound also had a pH-dependent lipophilicity (logD) in data set [2] of 1 to 3. Besides, the apparent permeability (Papp) in data set [3] lay in the range of 1 to 10 ×10⁻⁶ cm/s.
For `COC(=O)/C=C/CC[C@H](NC(=O)c1cc(Cl)sc1Cl)C(=O)Nc1cccn(CC(=O)N[C@@H]2C[C@@H]3CC[C@H]2C3)c1=O` [III-126, (S,E)-methyl 7-(1-(2-((1S,2R,4R)-bicyclo[2.2.1]heptan-2-ylamino)-2-oxoethyl)-2-oxo-1,2-dihydropyridin-3-ylamino)-6-(2,5-dichlorothiophene-3-carboxamido)-7-oxohept-2-enoate] the same measures were below 25 nM, 3 to 5 and 1 to 10 ×10⁻⁶ cm/s.
For `COC(=O)/C=C/CC[C@H](NC(=O)c1sc(C(F)(F)F)nc1C)C(=O)Nc1cccn(CC(=O)N[C@H]2C[C@H]3CC[C@]2(C)C3(C)C)c1=O` [III-127, (S,E)-methyl 6-(4-methyl-2-(trifluoromethyl)thiazole-5-carboxamido)-7-oxo-7-(2-oxo-1-(2-oxo-2-((1R,2S,4R)-1,7,7-trimethylbicyclo[2.2.1]heptan-2-ylamino)ethyl)-1,2-dihydropyridin-3-ylamino)hept-2-enoate] the same measures were below 25 nM, 3 to 5 and 1 to 10 ×10⁻⁶ cm/s.
For `COC(=O)/C=C/CC[C@H](NC(=O)c1cc(Cl)sc1Cl)C(=O)Nc1cccn(CC(=O)N[C@H]2C[C@H]3CC[C@]2(C)C3(C)C)c1=O` [III-128, (S,E)-methyl 6-(2,5-dichlorothiophene-3-carboxamido)-7-oxo-7-(2-oxo-1-(2-oxo-2-((1R,2S,4R)-1,7,7-trimethylbicyclo[2.2.1]heptan-2-ylamino)ethyl)-1,2-dihydropyridin-3-ylamino)hept-2-enoate], the half-maximal inhibitory concentration (IC50) in data set [1] is below 25 nM. In data set [2], this compound showed a logD of 3 to 5. The same compound came in with a Papp in data set [3] of 1 to 10 ×10⁻⁶ cm/s.
As for `COC(=O)/C=C/CC[C@H](NC(=O)c1ccn(C)n1)C(=O)Nc1cccn(CC(=O)NC2C3CC4CC(C3)CC2C4)c1=O` (stereo partly drawn) [III-129, (S,E)-methyl 7-(1-(2-(2-adamantylamino)-2-oxoethyl)-2-oxo-1,2-dihydropyridin-3-ylamino)-6-(1-methyl-1H-pyrazole-3-carboxamido)-7-oxohept-2-enoate], the IC50 in data set [1] was 25 to 250 nM. Besides, the logD in data set [2] is 1 to 3. In data set [3], the apparent permeability coefficient (Papp) was below 1 ×10⁻⁶ cm/s.
For `COC(=O)/C=C/CC[C@H](NC(=O)c1cnn(C)c1)C(=O)Nc1cccn(CC(=O)NC2C3CC4CC(C3)CC2C4)c1=O` (stereo partly drawn) [III-130, (S,E)-methyl 7-(1-(2-(2-adamantylamino)-2-oxoethyl)-2-oxo-1,2-dihydropyridin-3-ylamino)-6-(1-methyl-1H-pyrazole-4-carboxamido)-7-oxohept-2-enoate] the same measures were 25 to 250 nM, 1 to 3 and below 1 ×10⁻⁶ cm/s.
The matching figures for `COC(=O)/C=C/CC[C@H](NC(=O)c1ncc(OC)o1)C(=O)Nc1cccn(CCC(=O)NC2C3CC4CC(C3)CC2C4)c1=O` (stereo partly drawn) [III-133, (S,E)-methyl 7-(1-(3-(2-adamantylamino)-3-oxopropyl)-2-oxo-1,2-dihydropyridin-3-ylamino)-6-(5-methoxyoxazole-2-carboxamido)-7-oxohept-2-enoate]: 250 to 1500 nM, 3 to 5 and below 1 ×10⁻⁶ cm/s.
For the compound `COC(=O)/C=C/CC[C@H](NC(=O)c1cnc(C(C)C)o1)C(=O)Nc1cccn(CC(=O)NC23CCC(C2)C3)c1=O` [III-134, (S,E)-methyl 7-(1-(2-(bicyclo[2.1.1]hexan-1-ylamino)-2-oxoethyl)-2-oxo-1,2-dihydropyridin-3-ylamino)-6-(2-isopropyloxazole-5-carboxamido)-7-oxohept-2-enoate], the IC50 in data set [1] was in the range of 25 to 250 nM. In data set [2], this compound registered a logD of 1 to 3. In addition, in data set [3], the Papp lay within 1 to 10 ×10⁻⁶ cm/s.
The matching figures for `COC(=O)/C=C/CC[C@H](NC(=O)c1c(C)noc1C)C(=O)Nc1cccn(CC(=O)NC2C3CCCC2CC3)c1=O` (stereo partly drawn) [III-135, (6S,E)-methyl 7-(1-(2-(bicyclo[3.2.1]octan-8-ylamino)-2-oxoethyl)-2-oxo-1,2-dihydropyridin-3-ylamino)-6-(3,5-dimethylisoxazole-4-carboxamido)-7-oxohept-2-enoate]: 25 to 250 nM, 1 to 3 and 1 to 10 ×10⁻⁶ cm/s.
The matching figures for `COC(=O)/C=C/CC[C@H](NC(=O)c1cncnc1C)C(=O)Nc1cccn(CC(=O)NC2C3CC4CC2CC(C(=O)O)(C4)C3)c1=O` (stereo partly drawn) [III-136, (S,E)-methyl 7-(1-(2-(5-carboxy-2-aminoadamantane)-2-oxoethyl)-2-oxo-1,2-dihydropyridin-3-ylamino)-6-(4-methylpyrimidine-5-carboxamido)-7-oxohept-2-enoate]: 250 to 1500 nM, below 1 and below 1 ×10⁻⁶ cm/s.
The matching figures for `COC(=O)/C=C/CC[C@H](NC(=O)C1CCc2ccccc2C1)C(=O)Nc1cccn(CC(=O)NC2C3CC4CC2CC(C(=O)N(C)C)(C4)C3)c1=O` (stereo partly drawn) [III-137, (6S,E)-methyl 7-(1-(2-(4-aminoadamantane-N,N-dimethyl-1-carboxamide)-2-oxoethyl)-2-oxo-1,2-dihydropyridin-3-ylamino)-7-oxo-6-(1,2,3,4-tetrahydronaphthalene-2-carboxamido)hept-2-enoate]: 250 to 1500 nM, 1 to 3 and below 1 ×10⁻⁶ cm/s.
Turning to `CCN(CC)C(=O)/C=C/CC[C@H](NC(=O)c1coc(C(C)=O)n1)C(=O)Nc1cccn(CC(=O)NC23CC(C2)C3)c1=O` [III-138, (S,E)-6-(2-acetyloxazole-4-carboxamido)-N7-(1-(2-(bicyclo[1.1.1]pentan-1-ylamino)-2-oxoethyl)-2-oxo-1,2-dihydropyridin-3-yl)-N1,N1-diethylhept-2-enediamide], in data set [1], the IC50 lay within 250 to 1500 nM. This compound also displayed a logD in data set [2] below 1. Further, the Papp in data set [3] is below 1 ×10⁻⁶ cm/s.
For `CCN(CC)C(=O)/C=C/CC[C@H](NC(=O)[C@@H]1CN2CCN1CC2)C(=O)Nc1cccn(CC(=O)NC23CC(C2)C3)c1=O` [III-139, (S,E)-N7-(1-(2-(bicyclo[1.1.1]pentan-1-ylamino)-2-oxoethyl)-2-oxo-1,2-dihydropyridin-3-yl)-6-((S)-1,4-diazabicyclo[2.2.2]octane-2-carboxamido)-N1,N1-diethylhept-2-enediamide] the same measures were 250 to 1500 nM, below 1 and below 1 ×10⁻⁶ cm/s.
The matching figures for `CC(C)NC(=O)/C=C/CC[C@H](NC(=O)c1c[nH]c2ccccc12)C(=O)Nc1cccn(CC(=O)NC23CC(C2)C3)c1=O` [III-140, (S,E)-N7-(1-(2-(bicyclo[1.1.1]pentan-1-ylamino)-2-oxoethyl)-2-oxo-1,2-dihydropyridin-3-yl)-6-(1H-indole-3-carboxamido)-N1-isopropylhept-2-enediamide]: 25 to 250 nM, below 1 and 1 to 10 ×10⁻⁶ cm/s.
For `Cc1cn2c(C(=O)N[C@@H](CC/C=C/C(=O)NC(C)C)C(=O)Nc3cccn(CC(=O)NC45CC(C4)C5)c3=O)csc2n1` [III-141, (S,E)-N7-(1-(2-(bicyclo[1.1.1]pentan-1-ylamino)-2-oxoethyl)-2-oxo-1,2-dihydropyridin-3-yl)-N1-isopropyl-6-(6-methylimidazo[2,1-b]thiazole-3-carboxamido)hept-2-enediamide] the same measures were 250 to 1500 nM, below 1 and 1 to 10 ×10⁻⁶ cm/s.
`CCCCCNC(=O)/C=C/CC[C@H](NC(=O)c1nc2ccccc2s1)C(=O)Nc1cccn(CC(=O)NC23CC(C2)C3)c1=O` [III-142, (S,E)-6-(benzo[d]thiazole-2-carboxamido)-N7-(1-(2-(bicyclo[1.1.1]pentan-1-ylamino)-2-oxoethyl)-2-oxo-1,2-dihydropyridin-3-yl)-N1-pentylheptyl-2-enediamide]: the IC50 in data set [1] lay within 25 to 250 nM. Besides, the logD in data set [2] was in the range of 1 to 3. In data set [3], this compound returned a Papp of 1 to 10 ×10⁻⁶ cm/s.
